Source: patent US11666577B2 (National Institute of Biological Sciences, Beijing, priority 2018, dated 2023)

tested on: HT-29 cells; assay: Necroptosis assay (TNF-α/Smac mimetic/z-VAD, TSZ-induced) in HT-29 cells; format: cell-based, human; conditions: Homo sapiens, HT-29, 24 h; read-out: EC50 (nM), potency in TSZ-induced necroptosis assays in HT-29 cells
Experimental: Methods: HT-29 cells were cultured in McCoy's 5 A culture medium (Invitrogen). On day one, HT-29 cells were plated in 96-well assay plates at density of 2,500-3,500 cells per well. On day two, necrosis were induced by adding 20 ng/ml TNF-α (T), 100 nM Smac mimetic (S), and […] z-VAD (Z). At the same time, 10 mM compound from a chemical library of ˜200,000 compounds was delivered into each well. After 24 hrs treatment, cell viability was determined by measuring ATP level using the Cell Titer-Glo Luminescent Cell Viability Assay kit. A CellTiter-Glo Assay (Promega) was performed according to the manufacturer's instructions. Luminescence was recorded with a PerkinElmer EnSpire Multimode Plate Reader. Survived cells were normalized to those cells treated with DMSO. RIPA-56 was used as a positive control for screening necroptosis inhibitors. Data are represented as mean±standard deviation of duplicates.
In previous work, we performed a cell-based high-throughput screen to identify necroptosis inhibitors using a chemical library of ˜200,000 compounds and identified multiple compounds that protected human colorectal adenocarcinoma (HT-29) cells from TNF-α/Smac mimetic/Z-VAD-fmk (TSZ)-induced necroptosis.^[4]
The anti-necroptosis potency of compounds 7-12 and 14-18 was evaluated in the HT-29 cell line; the EC50 values are shown in Table B.
[a] Necroptosis was induced in HT-29 cells for 24 h; the EC50 values given here are the mean values of at least three independent analyses.

| SMILES | EC50 |
| --- | --- |
| C#CCn1c(=O)n(C)c(=O)c2c1nc(S(C)(=O)=O)n2C [Compound 12] | 152 ± 23 nM |

same assay, conditions: Homo sapiens; Series 1 (Table 1) compounds 1-146; HT-29 cells, TNF-α/Smac mimetic/z-VAD, 24 hrs, cell viability by ATP level; read-out: Series 1 compound necroptosis activity

| SMILES | EC50 |
| --- | --- |
| CCCS(=O)(=O)c1nc2c(c(=O)n(C)c(=O)n2C)n1C [Compound 10, 1,3,7-trimethyl-8-(propylsulfonyl)-1H-purine-2,6(3H,7H)-dione] | 1000 to 100000 nM |
| Cn1c(=O)c2c(nc(S(C)(=O)=O)n2C)n(C)c1=O [Compound 4, 1,3,7-trimethyl-8-(methylsulfonyl)-1H-purine-2,6(3H,7H)-dione] | 1000 to 10000 nM |
| C#CCn1c(=O)n(C)c(=O)c2c1nc(S(C)(=O)=O)n2C [Compound 106, 1,7-dimethyl-8-(methylsulfonyl)-3-(prop-2-ynyl)-1H-purine-2,6(3H,7H)-dione] | 1000 to 10000 nM |
| Cn1c(=O)c2c(nc(S(=O)(=O)CC3CC3)n2C)n(CC#Cc2cccc(Cl)c2)c1=O [Compound 119, 3-(3-(3-chlorophenyl)prop-2-yn-1-yl)-8-((cyclopropylmethyl)sulfonyl)-1,7-dimethyl-3,7-dihydro-1H-purine-2,6-dione] | 1000 to 10000 nM |
| Cn1c(=O)c2c(nc(S(=O)(=O)CC3CC3)n2C)n(Cc2ccccc2Br)c1=O [Compound 139, 3-(2-bromobenzyl)-8-((cyclopropylmethyl)sulfonyl)-1,7-dimethyl-1H-purine-2,6(3H,7H)-dione] | 1000 to 100000 nM |
| CNc1cc(C#CCn2c(=O)n(C)c(=O)c3c2nc([S+]([O-])Cc2cc(OC)ccc2OC)n3C)ccn1 (stereo not drawn) [Compound 128, 8-((2,5-dimethoxybenzyl)sulfinyl)-1,7-dimethyl-3-(3-(2-(methylamino)pyridin-4-yl)prop-2-yn-1-yl)-3,7-dihydro-1H-purine-2,6-dione] | 1000 to 100000 nM |
| Cn1c(=O)c2c(nc(S(=O)(=O)CC3CC3)n2C)n(Cc2ccc(Cl)cc2)c1=O [Compound 138, 3-(4-chlorobenzyl)-8-((cyclopropylmethyl)sulfonyl)-1,7-dimethyl-1H-purine-2,6(3H,7H)-dione] | 1000 to 100000 nM |
| Cn1c(=O)c2c(nc(S(=O)(=O)CC3CC3)n2C)n(Cc2cccc(Cl)c2)c1=O [Compound 137, 3-(3-chlorobenzyl)-8-((cyclopropylmethyl)sulfonyl)-1,7-dimethyl-1H-purine-2,6(3H,7H)-dione] | 1000 to 100000 nM |
| Cn1c(=O)c2c(nc(S(=O)(=O)CC3CC3)n2C)n(C)c1=O [Compound 13, 8-(cyclopropylmethylsulfonyl)-1,3,7-trimethyl-1H-purine-2,6(3H,7H)-dione] | 1000 to 100000 nM |
| Cn1c(=O)[nH]c2nc(S(C)(=O)=O)n(C)c2c1=O [Compound 99, 1,7-dimethyl-8-(methylsulfonyl)-1H-purine-2,6(3H,7H)-dione] | 1000 to 100000 nM |

same assay, conditions: Homo sapiens; Series 2 (Table 2) compounds; HT-29 necroptosis assay; read-out: Series 2 compound necroptosis activity

| SMILES | EC50 |
| --- | --- |
| Cn1c(=O)c2c(nc(S(=O)(=O)CC3CC3)n2C)n(CC#Cc2cccc(NCCN3CCOCC3)c2)c1=O [Compound 19] | 1 to 100 nM |
| CCS(=O)(=O)c1nc2c(c(=O)n(C)c(=O)n2CC#Cc2cc(NC(=O)C3CC3)cc(NC(=O)C3CC3)c2)n1C [Compound 50] | 1 to 100 nM |
| Cn1c(=O)c2c(nc(S(C)(=O)=O)n2C)n(CC#Cc2cc(N)cc(NC(=O)C3CC3)c2)c1=O [Compound 40] | 1 to 100 nM |
| Cn1c(=O)c2c(nc(S(=O)(=O)NCc3ccccc3)n2C)n(C)c1=O [Compound 55] | 10000 to 100000 nM |
| Cn1c(=O)c2c(nc([S+](C)[O-])n2C)n(CC#Cc2cc(NC(=O)C3CC3)cc(C(F)(F)F)c2)c1=O (stereo not drawn) [Compound 49] | > 10000 nM |
| Cn1c(=O)c2c(nc(S(=O)(=O)CC3CC3)n2C)n(CC#Cc2cc(NC(=O)CN3CCOCC3)cc(NC(=O)CN3CCOCC3)c2)c1=O [Compound 28] | 1 to 100 nM |
| Cn1c(=O)c2c(nc([S+](C)[O-])n2C)n(CC#Cc2cc(NC(=O)C3CC3)nc(C(F)(F)F)c2)c1=O (stereo not drawn) [Compound 48] | 100 to 10000 nM |
| Cn1c(=O)c2c(nc([S+](C)[O-])n2C)n(CC#Cc2cccc(O)c2)c1=O (stereo not drawn) [Compound 8] | 1 to 100 nM |

same assay, conditions: Series 1 (Table 1) compounds 1-146; HT-29 cells, TNF-α/Smac mimetic/z-VAD, 24 hrs, cell viability by ATP level; read-out: Series 1 compound necroptosis activity

| SMILES | EC50 |
| --- | --- |
| CCn1c(=O)c2c(nc(S(C)(=O)=O)n2C)n(C)c1=O [Compound 89, ethyl-3,7-dimethyl-8-(methylsulfonyl)-1H-purine-2,6(3H,7H)-dione] | 1000 to 1e+06 nM |
| Cn1c(=O)c2c(nc(S(=O)(=O)CC3CC3)n2C)n(Cc2cccnc2)c1=O [Compound 143, 8-((cyclopropylmethyl)sulfonyl)-1,7-dimethyl-3-(pyridin-3-ylmethyl)-1H-purine-2,6(3H,7H)-dione] | 1000 to 1e+06 nM |
| Cn1c(=O)c2c(nc(S(=O)(=O)Cc3ccc(C#N)cc3)n2C)n(C)c1=O [Compound 44, 4-((1,3,7-trimethyl-2,6-dioxo-2,3,6,7-tetrahydro-1H-purin-8-ylsulfonyl)methyl)benzonitrile] | 1000 to 1e+06 nM |
| CCOc1ccc(OC)cc1CS(=O)(=O)c1nc2c(c(=O)n(C)c(=O)n2C)n1C [Compound 65, 8-(2-ethoxy-5-methoxybenzylsulfonyl)-1,3,7-trimethyl-1H-purine-2,6(3H,7H)-dione] | 1000 to 1e+06 nM |
| Cn1c(=O)c2c(nc(S(=O)(=O)Cc3ccc(Cl)cc3)n2C)n(C)c1=O [Compound 31, 8-(4-chlorobenzylsulfonyl)-1,3,7-trimethyl-1H-purine-2,6(3H,7H)-dione] | 1000 to 1e+06 nM |
| CSc1nc2c(c(=O)n(C)c(=O)n2C)n1C [Compound 2, 1,3,7-trimethyl-8-(methylthio)-1H-purine-2,6(3H,7H)-dione] | 1000 to 1e+06 nM |
| Cn1c(=O)c2c(nc(S(=O)(=O)Cc3cccc(Cl)c3Cl)n2C)n(C)c1=O [Compound 54, 8-(2,3-dichlorobenzylsulfonyl)-1,3,7-trimethyl-1H-purine-2,6(3H,7H)-dione] | 1000 to 1e+06 nM |
| Cn1c(=O)c2c(nc(S(=O)(=O)Cc3ccc(C(N)=O)cc3)n2C)n(C)c1=O [Compound 47, 4-((1,3,7-trimethyl-2,6-dioxo-2,3,6,7-tetrahydro-1H-purin-8-ylsulfonyl)methyl)benzamide] | 1000 to 1e+06 nM |
| Cn1c(=O)c2c(nc(S(=O)(=O)Cc3cccnc3)n2C)n(C)c1=O [Compound 50, 1,3,7-trimethyl-8-(pyridin-3-ylmethylsulfonyl)-1H-purine-2,6(3H,7H)-dione] | 1000 to 1e+06 nM |
| Cn1c(=O)c2c(nc(S(=O)(=O)CCc3cn(CCOCCOCCOCCNC(=O)CCCC[C@@H]4SCC5NC(=O)NC54)nn3)n2C)n(C)c1=O (stereo partly drawn) [Compound 25, 5-((4S)-2-oxohexahydro-1H-thieno[3,4-d]imidazol-4-yl)-N-(2-(2-(2-(2-(4-(2-(1,3,7-trimethyl-2,6-dioxo-2,3,6,7-tetrahydro-1H-purin-8-ylsulfonyl)ethyl)-1H-1,2,3-triazol-1-yl)ethoxy)ethoxy)ethoxy)ethyl)pentanamide] | 1000 to 1e+06 nM |
| CCCn1c(=O)c2c(nc(S(C)(=O)=O)n2C)n(C)c1=O [Compound 90, 3,7-dimethyl-8-(methylsulfonyl)-1-propyl-1H-purine-2,6(3H,7H)-dione] | 1000 to 1e+06 nM |

same assay, conditions: Series 1 (Table 1) compounds 147-176; activity extrapolated; read-out: Series 1 compound necroptosis activity (extrapolated)

| SMILES | EC50 |
| --- | --- |
| Cn1c(=O)c2c(nc(S(=O)(=O)CC3CC3)n2C)n(Cc2cn(/C=C/CN)nn2)c1=O [Compound 172] | 1000 to 1e+06 nM |
| Cn1c(=O)c2c(nc(S(C)(=O)=O)n2C)n(CC#Cc2cccc3[nH]ccc23)c1=O [Compound 169] | 1000 to 1e+06 nM |
| CN(C)CCS(=O)(=O)c1nc2c(c(=O)n(C)c(=O)n2CC#Cc2cccc(O)c2)n1C [Compound 152] | 1000 to 1e+06 nM |
| Cn1c(=O)c2c(nc(S(=O)(=O)CCOCCO)n2C)n(CC#Cc2cccc(O)c2)c1=O [Compound 153] | 1000 to 1e+06 nM |
| CCCS(=O)(=O)c1nc2c(c(=O)n(C)c(=O)n2Cc2ccc(-c3cccc(NCC)c3)s2)n1C [Compound 176] | 1000 to 1e+06 nM |
| Cn1c(=O)c2c(nc(S(C)(=O)=O)n2C)n(CC#CC2CCCNC2)c1=O (stereo not drawn) [Compound 167] | 1000 to 1e+06 nM |
| CN(C)S(=O)(=O)c1nc2c(c(=O)n(C)c(=O)n2CC#Cc2cccc(O)c2)n1C [Compound 158] | 1000 to 1e+06 nM |
| Cn1c(=O)c2c(nc(S(C)(=O)=O)n2C)n(CC#Cc2cc(N)cc(Br)c2)c1=O [Compound 168] | 1000 to 1e+06 nM |
| Cn1c(=O)c2c(nc(S(=O)(=O)CCN)n2C)n(CC#Cc2cccc(O)c2)c1=O [Compound 150] | 1000 to 1e+06 nM |

same assay, conditions: Series 1 (Table 1) compounds; HT-29 cells, TNF-α/Smac mimetic/z-VAD, 24 hrs, cell viability by ATP level; read-out: Series 1 compound necroptosis activity

| SMILES | EC50 |
| --- | --- |
| CNc1cc(C#CCn2c(=O)n(C)c(=O)c3c2nc(S(=O)(=O)CC2CC2)n3C)ccn1 [Compound 126, 8-((cyclopropylmethyl)sulfonyl)-1,7-dimethyl-3-(3-(2-(methylamino)pyridin-4-yl)prop-2-yn-1-yl)-3,7-dihydro-1H-purine-2,6-dione] | 1 to 1000 nM |
| Cn1c(=O)c2c(nc(S(=O)(=O)CC3CC3)n2C)n(CC#Cc2cccc(N)c2)c1=O [Compound 124, 3-(3-(3-aminophenyl)prop-2-yn-1-yl)-8-((cyclopropylmethyl)sulfonyl)-1,7-dimethyl-3,7-dihydro-1H-purine-2,6-dione] | 1 to 1000 nM |
| Cn1c(=O)c2c(nc(S(=O)(=O)CC3CC3)n2C)n(CC#Cc2cccc([N+](=O)[O-])c2)c1=O [Compound 125, 8-((cyclopropylmethyl)sulfonyl)-1,7-dimethyl-3-(3-(3-nitrophenyl)prop-2-yn-1-yl)-3,7-dihydro-1H-purine-2,6-dione] | 1 to 1000 nM |
